Patent US8158606B2, “β-L-2′-deoxynucleosides for the treatment of resistant HBV strains and combination therapies” (priority 2002, dated 2012)
Several values for one entry are separate records, joined by “and”; a condition that tells them apart may be missing. Equal values may be shown once. Where a name gives a salt, the structure may show the parent alone. Read-outs that look alike come from different tables or passages of the source.

How the values were obtained:
[1] = Solubility study in water (HPLC calibration); conditions: listed as 3′,5′-divalinyl ester hydrochloride of β-L-dC, hydrochloride
[2] = dival-L-dC 10 mg/kg oral
From the text: The drug was quantitated in plasma and in urine using HPLC analysis.

[3] = Bioavailability of the prodrugs of L-dC; conditions: oral administration to monkeys
[4] = type: physicochemical; conditions: octanol-1 (B) / MilliQ water pH 6.5 (A′), Study 1 and Study 2, listed as L-dC-3′,5′-divalinyl ester hydrochloride
Description: (§1) To 1 mL of this solution, 1 mL of octanol-1 (B) saturated with MilliQ water (A′) was added.
as §1

[5] = Log P study, octanol-1 / phosphate buffer
Description: To 1 mL of this solution, 1 mL of octanol-1 (B) saturated with 0.02 M phosphate buffer solution (A) was added. The resultant mixture was shaken and centrifuged; three samples from each phase was collected and analyzed by HPLC, as shown in Table 10.
The solution was then saturated with octanol-1 (B). To 1 mL of this solution, 1 mL of octanol-1 (B) saturated with 0.02 M phosphate buffer solution (A) was added. The resultant mixture was shaken and centrifuged; three samples from each phase was collected and analyzed by HPLC, as shown in Table 11.

human plasma proteins = type: in vitro ADME; conditions: ex vivo, ultrafiltration
[6] = type: in vivo, cynomolgus monkey (Macaca fascicularis)
From the text: The drug was quantitated in plasma and urine with a liquid chromatography-mass spectrometry (LC-MS) technique.

[7] = In vitro stability of dival-L-dC in human plasma; type: in vitro ADME; conditions: 37° C.
From the text: Two additional metabolites (β-L-2′-deoxycytidine-5′-valine ester and β-L-2′-deoxycytidine-valine ester) were also noted.

[8] = Stability study in buffer at pH 7.4, 7.20, 4.5 and 1.2; type: physicochemical; conditions: no other compounds detected up to 48 hours
[9] = during the log P experiment in phosphate buffer

CC(C)[C@H](N)C(=O)OC[C@@H]1O[C@H](n2ccc(N)nc2=O)C[C@H]1OC(=O)[C@@H](N)C(C)C [3′5′-dival-L-dC, 3,5′-L-Valine ester of 2′-deoxy-β-L-cytidine hydrochloride]
Solubility (mol/L) [1]: more than 2.5 mol/L
L-dC as share of drug excreted in the urine [2]: ~89%
administered oral dose recovered in urine after 72 hours [2]: 31%
administered oral dose recovered in urine within 8 hours [2]: Approximately 26%
renal excretion of L-dU, share of the recovered dose [2]: approximately 10%
dival-L-dC in plasma at 15 minutes post-dose ([2]; detected in only one animal): 0.35 µM
share of absorbed ester converted to L-dC [3]: more than 99%
share of the oral dose absorbed [3]: approximately 73%
P′ (B/A′) [4]: 1.80 × 10^−3 and 1.77 × 10^−3
conversion of the divaline ester detected in the aqueous phase [5, 9]: 50%
conversion of the divaline ester detected in the organic phase [5, 9]: 14%
log P (octanol/water) ([5]; octanol-1 / 0.02 M phosphate buffer pH 7.2): −0.86
binding to human plasma proteins (human plasma proteins): 13.3%
Cmax of val-L-dC (unchanged prodrug) ([6]; Oral (10 mg/kg dival-L-dC)): Not detected
L-dC as share of drug excreted in the urine ([6]; dival-L-dC 10 mg/kg IV): ~93%
administered dose excreted in urine within 2 hours ([6]; dival-L-dC 10 mg/kg IV): 58±3%
renal excretion of L-dU, share of total recovered dose ([6]; dival-L-dC 10 mg/kg IV): approximately 2.5%
renal excretion of β-L-2′-deoxycytidine-5′-valine ester, share of total recovered dose ([6]; dival-L-dC 10 mg/kg IV): ~3.7%
β-L-2′-deoxycytidine-5′-valine ester in plasma at 15 minutes ([6]; dival-L-dC 10 mg/kg IV): 3.23 µM
β-L-2′-deoxycytidine-5′-valine ester in plasma by 2 hours ([6]; dival-L-dC 10 mg/kg IV): 0.08 µM
dival-L-dC in plasma at 30 minutes ([6]; dival-L-dC 10 mg/kg IV, 1 of 3 animals): 0.36 µM
dival-L-dC in urine, share of the recovered dose ([6]; dival-L-dC 10 mg/kg IV, one of three animals at 2 hours): approximately 0.15%
L-dC as share of drug excreted in the urine ([6]; dival-L-dC 10 mg/kg oral): ~95%
L-dC as share of plasma drug levels at Cmax ([6]; dival-L-dC 10 mg/kg oral): > 99%
administered oral dose recovered in urine after 72 hours ([6]; dival-L-dC 10 mg/kg oral): 39±8%
administered oral dose recovered in urine within 4 hours ([6]; dival-L-dC 10 mg/kg oral): ~31±8%
renal excretion of L-dU, share of total recovered dose ([6]; dival-L-dC 10 mg/kg oral): approximately 2.5%
renal excretion of β-L-2′-deoxycytidine-5′-valine ester, share of total recovered dose ([6]; dival-L-dC 10 mg/kg oral): ~0.2%
L-dU concentration in plasma at 8 hours ([6]; dival-L-dC 10 mg/kg oral, one animal): 0.39 µM
in vitro half-life in human plasma [7]: approximately 39 min
stability in words [8]: fully stable
